# Values of other authors in patent US7572596B2, “Modulation of the neuroendoctrine system as a therapy for motor neuron disease” (University of Pittsburgh of the Commonwealth System of …, priority 2004, dated 2009).
# Key:
# [1] = test system: SOD1 transgenic mice; settings: Groeneveld, 2003, Desnuelle, 2001
# [2] = test system: human ALS patients; settings: 2003; for efficacy in human ALS patients: Groeneveld, Desnuelle, 2001
# [3] = test system: transgenic model for multiple sclerosis; settings: direct administration; Fernandez et al, 2004
SMILES,efficacy in relieving the symptoms of ALS [1],efficacy in human ALS patients [2],"life expectancy of ALS patients ([2]; ALS patients, Miller)",axonal pathology [3],remyelination [3]
CN(CC(=O)O)C(=N)N [Creatine],some efficacy,minimal efficacy,–,–,–
Nc1nc2ccc(OC(F)(F)F)cc2s1 [Riluzole],–,–,extends life expectancy by only a few months,–,–
NC(Cc1cc(I)c(Oc2cc(I)c(O)c(I)c2)c(I)c1)C(=O)O (stereo not shown) [T4],–,–,–,neuroprotective for axonal pathology,enhances remyelination
Cc1c(C)c2c(c(C)c1O)CC[C@@](C)(CCC[C@H](C)CCC[C@H](C)CCCC(C)C)O2 [a-tocopherol],some efficacy,minimal efficacy,–,–,–
